The results in this text go back to patent US20260200890A1, “ADAR1 INHIBITORS AND METHODS OF USING THE SAME” (AVAMMUNE THERAPEUTICS INC., priority 2022, published 2026).

This assay concerns the target T1, ADAR1 (Homo sapiens, UniProt P55265).
T1 construct: endogenous in cells; host or cells: p110 KO A549 dual cells
T1 sequence (P55265 1-1226): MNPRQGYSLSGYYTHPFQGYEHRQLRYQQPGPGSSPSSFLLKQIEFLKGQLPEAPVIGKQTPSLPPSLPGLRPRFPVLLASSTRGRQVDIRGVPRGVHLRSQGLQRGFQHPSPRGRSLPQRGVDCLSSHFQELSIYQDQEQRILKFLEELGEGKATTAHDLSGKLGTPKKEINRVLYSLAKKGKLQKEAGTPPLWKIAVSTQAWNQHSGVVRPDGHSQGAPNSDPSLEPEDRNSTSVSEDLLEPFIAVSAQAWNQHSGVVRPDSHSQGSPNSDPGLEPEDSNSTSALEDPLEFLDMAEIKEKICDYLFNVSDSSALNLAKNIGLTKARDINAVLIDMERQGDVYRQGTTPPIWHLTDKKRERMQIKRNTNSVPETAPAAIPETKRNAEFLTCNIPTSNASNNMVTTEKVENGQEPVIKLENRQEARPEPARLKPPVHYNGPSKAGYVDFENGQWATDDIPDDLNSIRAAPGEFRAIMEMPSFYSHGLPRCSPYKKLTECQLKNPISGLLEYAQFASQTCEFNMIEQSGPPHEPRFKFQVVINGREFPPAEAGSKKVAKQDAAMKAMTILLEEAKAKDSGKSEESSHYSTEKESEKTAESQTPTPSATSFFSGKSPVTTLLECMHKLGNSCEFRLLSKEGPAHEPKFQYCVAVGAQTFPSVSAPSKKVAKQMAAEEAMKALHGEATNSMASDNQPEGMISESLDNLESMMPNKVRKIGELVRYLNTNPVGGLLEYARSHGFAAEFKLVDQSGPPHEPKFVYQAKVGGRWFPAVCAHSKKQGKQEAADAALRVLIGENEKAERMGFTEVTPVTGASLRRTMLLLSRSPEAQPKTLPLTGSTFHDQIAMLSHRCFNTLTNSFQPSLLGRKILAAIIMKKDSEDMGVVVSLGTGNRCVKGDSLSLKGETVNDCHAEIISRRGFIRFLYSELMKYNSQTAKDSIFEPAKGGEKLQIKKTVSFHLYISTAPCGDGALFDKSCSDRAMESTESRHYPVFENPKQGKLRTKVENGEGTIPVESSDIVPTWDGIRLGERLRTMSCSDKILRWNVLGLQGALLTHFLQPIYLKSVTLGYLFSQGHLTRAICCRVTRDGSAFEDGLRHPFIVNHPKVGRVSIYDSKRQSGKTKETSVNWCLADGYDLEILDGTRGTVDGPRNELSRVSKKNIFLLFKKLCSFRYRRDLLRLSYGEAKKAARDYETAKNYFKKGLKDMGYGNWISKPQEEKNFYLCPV
The assay is described as follows: ADAR1 Inhibition Assay (IFN fold-induction, Quanti-Luc luminescence, p110 KO A549 dual cells). It counts as cell-based. To be noted: IFN fold-induction vs DMSO, 24 and 48 h. As to the method:
An ADAR1 Inhibition Assay was used to determine the biological activity (EC50) of compounds disclosed herein. 100 μL of p110 KO A549 dual cell suspension in supplemented DMEM (20,000 cells per well) was added into a flat bottom 96 well plate. Next day, post media change, 180 μL of supplemented DMEM was added. 20 μL of test compound or positive control was added to the respective wells (Final concentration of DMSO is 1%). The plate was incubated for 24 and 48 hours at 37° C. in a 5% CO2 incubator. After 24 and 48 h, 20 μL of cell suspension was taken in black well plates and 50 μL of Quanti-Luc was added to each well and luminescence was measured using a microplate reader (Spectra Max). IFN fold-induction was plotted considering DMSO as control using the relative luminescence unit (RLU) values. (Fold induction: Sample RLU/Average DMSO RLU).

Usually EC50 stands for the midpoint of the concentration-response curve. A higher EC50 goes with a less potent agent. In turn, `CCOC(=O)c1cc(-c2ccc(OC(F)(F)F)cc2)sc1NC(=O)COC(=O)c1cccc(S(N)(=O)=O)c1` [Compound 73] had an EC50 of over 100 µM.

With `CCOC(=O)c1cc(-c2ccccc2)sc1NC(=O)COC(=O)c1ccc(Cl)c(S(N)(=O)=O)c1` [Compound 74], the EC50 was over 100 µM. In the case of `CCOC(=O)c1cc(-c2ccc(F)cc2)sc1NC(=O)COC(=O)c1cccc(S(N)(=O)=O)c1` [Compound 75] it was at most 25 µM; in that of `CCOC(=O)c1cc(-c2ccccc2)sc1NC(=O)COC(=O)c1cc(S(N)(=O)=O)ccc1C` [Compound 76], over 100 µM. The result for `CCOC(=O)c1c(NC(=O)COC(=O)c2cccc(S(N)(=O)=O)c2)sc2c1CCC2` [Compound 77] reads over 100 µM; that for `NS(=O)(=O)c1cccc(C(=O)OCC(=O)Nc2ccc(-c3ccccc3)s2)c1` [Compound 78], over 100 µM; that for `CCOC(=O)c1cc(-c2ccccc2)sc1NC(=O)[C@H](CC)OC(=O)c1cccc(S(N)(=O)=O)c1` [Compound 79], over 100 µM. With `CCOC(=O)c1cc(-c2ccccc2)sc1NC(=O)[C@H](CC)OC(=O)c1cccc(NS(C)(=O)=O)c1` [Compound 80], the EC50 was over 100 µM.

With `CCOC(=O)c1cc(-c2ccc(C(C)C)cc2)sc1NC(=O)COC(=O)c1cccc(S(N)(=O)=O)c1` [Compound 81], the concentration giving a half-maximal response (EC50) is over 100 µM.

Molecule `CCOC(=O)c1cc(-c2ccccc2)sc1NC(=O)COC(=O)c1cccc(OS(C)(=O)=O)c1` [Compound 82] displayed an EC50 of over 100 µM.

With `Cc1cc(C#N)c(NC(=O)COC(=O)c2cccc(S(N)(=O)=O)c2)s1` [Compound 83], the EC50 is over 100 µM. In the case of `CS(=O)(=O)Oc1cccc(C(=O)OCC(=O)Nc2sc(-c3ccccc3)cc2C(N)=O)c1` [Compound 84] it was over 100 µM; in that of `CS(=O)(=O)Nc1cccc(C(=O)OCC(=O)Nc2sc(-c3ccccc3)cc2C(=O)NC2CC2)c1` [Compound 85], over 100 µM.

Molecule `CCOC(=O)c1c(NC(=O)COC(=O)c2cccc(NS(C)(=O)=O)c2)sc2c1CCC2` [Compound 86] registered an EC50 of over 100 µM. The result for `CCOC(=O)c1cc(-c2ccccc2)sc1NC(=O)c1cccc(C#N)c1` [Compound 88] reads over 100 µM; that for `CCOC(=O)c1c(NC(=O)COC(=O)c2cccc(NS(C)(=O)=O)c2)sc2c1CCCC2` [Compound 89], over 100 µM; that for `CS(=O)(=O)Nc1cccc(C(=O)OCC(=O)Nc2sccc2C#N)c1` [Compound 90], over 100 µM.

`CCOC(=O)c1c(NC(=O)COC(=O)c2cccc(C#N)c2)sc2c1CCCC2` [Compound 91] registered an EC50 of over 100 µM. Regarding `CCOC(=O)c1cc(-c2ccccc2)sc1NC(=O)COC(=O)c1cccc(NS(=O)(=O)c2ccc(F)cc2)c1` [Compound 93], the EC50 is over 100 µM. The result for `CCOC(=O)c1c(-c2ccccc2)csc1NC(=O)COC(=O)c1cccc(NS(C)(=O)=O)c1` [Compound 95] reads over 100 µM; that for `CCOC(=O)c1cc(-c2ccccc2)sc1NC(=O)COC(=O)c1cccc(C(=O)O)c1` [Compound 96], over 100 µM.

`CCOC(=O)c1ccsc1NC(=O)COC(=O)c1cccc(NS(C)(=O)=O)c1` [Compound 97] gave an EC50 of over 100 µM.

As for `CCOC(=O)c1cc(-c2ccc(OC(F)(F)F)cc2)sc1NC(=O)COC(=O)c1cccc(NS(C)(=O)=O)c1` [Compound 100], the EC50 was over 100 µM. As for `CCOC(=O)c1cc(-c2ccccc2)sc1NC(=O)COC(=O)c1ccc(NS(C)(=O)=O)cc1` [Compound 101], the concentration giving a half-maximal response (EC50) is over 100 µM. In the case of `CCOC(=O)c1cc(-c2ccccc2)sc1NC(=O)COC(=O)c1cccc(NS(=O)(=O)c2ccc(C)cc2)c1` [Compound 102] it was over 100 µM; in that of `CCOC(=O)c1cc(-c2ccc(S(C)(=O)=O)cc2)sc1NC(=O)COC(=O)c1cccc(NS(C)(=O)=O)c1` [Compound 103], over 100 µM; in that of `CCOC(=O)c1c(NC(=O)COC(=O)c2cccc(NS(C)(=O)=O)c2)sc2c1CCN(C)C2` [Compound 104], over 100 µM. `CCOC(=O)c1cc(-c2ccccc2)sc1NC(=O)CN(c1cccc(CO)c1)S(C)(=O)=O` [Compound 105] had an EC50 of over 100 µM.

The molecule `CCOC(=O)c1cc(-c2ccc(C(F)(F)F)cc2)sc1NC(=O)COC(=O)c1cccc(NS(C)(=O)=O)c1` [Compound 106] gave an EC50 of over 100 µM. Take `CCOC(=O)c1cc(-c2ccc(F)cc2)sc1NC(=O)COC(=O)c1cccc(NS(C)(=O)=O)c1` [Compound 108]: the EC50 was at most 25 µM. In the case of `CCOC(=O)c1cc(-c2ccccc2)sc1NC(=O)C1CCCN1C(=O)c1cccc(NS(C)(=O)=O)c1` (stereo not drawn) [Compound 109], the half-maximal effective concentration (EC50) was over 100 µM. The result for `CCOC(=O)c1cc(-c2ccccc2)sc1NC(=O)COC(=O)c1ccccc1NS(C)(=O)=O` [Compound 110] reads over 100 µM; that for `CCOC(=O)c1cc(-c2ccccc2)sc1NC(=O)C1CCCN(C(=O)c2cccc(S(N)(=O)=O)c2)C1` (stereo not drawn) [Compound 111], over 100 µM. In the case of `CCOC(=O)c1cc(-c2ccccc2)sc1NC(=O)COC(=O)c1cccc(NS(N)(=O)=O)c1` [Compound 112] it was over 100 µM. In the case of `CCOC(=O)c1ccc(-c2ccccc2)nc1NC(=O)COC(=O)c1cccc(NS(C)(=O)=O)c1` [Compound 113] it was over 100 µM; in that of `CCOC(=O)c1cc(-c2cncnc2)sc1NC(=O)COC(=O)c1cccc(NS(N)(=O)=O)c1` [Compound 115], over 100 µM. Regarding `CCOC(=O)c1cc(-c2cccc(F)c2)sc1NC(=O)COC(=O)c1cccc(NS(C)(=O)=O)c1` [Compound 116], the EC50 was over 100 µM. The result for `CCNC(=O)c1cc(-c2ccccc2)sc1NC(=O)COC(=O)c1cccc(NS(C)(=O)=O)c1` [Compound 117] reads over 100 µM. In the case of `CCOC(=O)c1cc(-c2ccc(F)cc2)sc1NC(=O)C1CCCN1C(=O)c1cccc(NS(C)(=O)=O)c1` (stereo not drawn) [Compound 119] it was over 100 µM.

The molecule `CCOC(=O)c1ccc(-c2ccccc2)cc1NC(=O)COC(=O)c1cccc(NS(C)(=O)=O)c1` [Compound 120] had an EC50 of over 100 µM. For the molecule `CCOC(=O)c1cc(-c2ccccc2)sc1NC(=O)CN(C)C(=O)c1cccc(S(N)(=O)=O)c1` [Compound 122], the EC50 was over 100 µM. The result for `CS(=O)(=O)Nc1cccc(C(=O)OCC(=O)Nc2sc(-c3ccccc3)cc2C(=O)N2CCOCC2)c1` [Compound 123] reads over 100 µM; that for `CCOC(=O)c1cc(-c2ccccc2)sc1NC(=O)COC(=O)c1cccc(NS(=O)(=O)c2ccccc2)c1` [Compound 124], over 100 µM; that for `CCOC(=O)c1cc(-c2ccccc2)sc1NC(=O)COC(=O)c1cc(NS(C)(=O)=O)ccc1C` [Compound 125], over 100 µM.

Turning to `CCOC(=O)c1cc(-c2ccccc2)sc1NC(=O)COC(=O)Cc1cccc(NS(C)(=O)=O)c1` [Compound 126], the EC50 was over 100 µM. `CCOC(=O)c1cc(-c2ccccc2)sc1NC(=O)COC(=O)c1cc(NS(C)(=O)=O)c(F)cc1F` [Compound 128] returned an EC50 of over 100 µM. In the case of `CCOC(=O)c1cc(-c2ccccc2)sc1NC(=O)COC(=O)c1cc(NS(C)(=O)=O)ccc1F` [Compound 129] it was over 100 µM. The result for `CCOC(=O)c1cc(-c2ccccc2)sc1NC(=O)COC(=O)c1cccc(NS(=O)(=O)C(C)C)c1` [Compound 131] reads over 100 µM. In the case of `CCCCS(=O)(=O)Nc1cccc(C(=O)OCC(=O)Nc2sc(-c3ccccc3)cc2C(=O)OCC)c1` [Compound 133] it was over 100 µM; in that of `CCOC(=O)c1cc(-c2ccccc2)sc1NC(=O)COC(=O)c1cccc(NS(=O)(=O)CC)c1` [Compound 134], over 100 µM; in that of `CCOC(=O)c1cc(-c2ccc(N3CCOCC3)cc2)sc1NC(=O)COC(=O)c1cccc(NS(C)(=O)=O)c1` [Compound 135], over 100 µM.
